Test results published in patent publication US7855076B2, “Use of discoidin domain receptor 1 (DDR1) and agents that affect the DDR1/collagen pathway” (The United States of America as represented by the …, priority 2002, dated 2010).

Test system: THP-1 cells
Experiment: Adherence of THP-1 cells to coated plates
Assay type: cell-based, human
Conditions: DDR1a- or DDR1b-overexpressing THP-1 cells, 30 minutes
Procedure: 5×10^5 cells/ml were cultured on either BSA (10 mg/ml)- or collagen (20 μg/ml) and BSA-coated plates for 30 (FIG. 2A) or 120 minutes (FIG. 2B) at 37° C. in a 5% CO2 humidified incubator. Normal mouse IgG or anti-β1 integrin blocking IgG was added to measure the effect of β1 integrin in the assay. The number of adherent cells in each 400× visual field was counted. The results are presented as means ±SE of four individual fields. Data are representative of three experiments with two independent clones overexpressing either DDR1a or DDR1b.
To determine the effects of collagen on the functions of DDR1a- and DDR1b-overexpressing THP-1 cells, the cells were incubated on collagen-coated plastic plates. Twenty-four-well plates were coated with 100 μl/well human collagen type I (20 μg/ml) overnight at 4° C., and then with 200 μl/well 10 mg/ml bovine serum albumin (BSA) for 1 hour at 37° C. Cells were plated at the cell density of 1×10^5 cells/ml to the coated wells and were incubated for 30 minutes at 37° C. in 5% CO2 humidified atmosphere. Nonadherent cells were removed by washing three times with PBS. Cells that remained on the coated surface were considered to be adherent, and the number of cells in each 400 field was counted. Results were presented as mean ±SE per 400 field.

collagen
cells adhered to collagen-coated plates: ~62 % of total cells
